Assay [1] deals with T1, FoxO1 (Mus musculus, UniProt Q9R1E0). The arrangement: endogenous in cells; host or cells: Somatostatin-Cre; R26-YFP; RIP-DTR mice (pancreatic islets, δ-cells), in vivo. Particulars: oral administration, diabetic db/db mice; cited from earlier work.
Assay [2] has as its target T1, FoxO1. Nature of the assay: Transient FoxO1 inhibition in β-cell-ablated (and non-ablated control) adult Somatostatin-Cre; R26-YFP; RIP-DTR mice: δ-cell conversion into insulin+ cells.
The subject of a further assay is β-cells. The format is in vivo, mice. To be noted: 2 weeks following DT administration; ablation at 2 weeks of age.
The test system of another assay is α-cells. Put plainly: α-cell lineage tracing after β-cell ablation in Glucagon-rtTA; TetO-Cre; R26-YFP; RIP-DTR pups. Format: in vivo, mice. Particulars: DT at 2 weeks of age.
[3] abbreviates: administered immediately after DT ablation, analysed 1mpa, adult mice.

T1 sequence (Q9R1E0 whole entry): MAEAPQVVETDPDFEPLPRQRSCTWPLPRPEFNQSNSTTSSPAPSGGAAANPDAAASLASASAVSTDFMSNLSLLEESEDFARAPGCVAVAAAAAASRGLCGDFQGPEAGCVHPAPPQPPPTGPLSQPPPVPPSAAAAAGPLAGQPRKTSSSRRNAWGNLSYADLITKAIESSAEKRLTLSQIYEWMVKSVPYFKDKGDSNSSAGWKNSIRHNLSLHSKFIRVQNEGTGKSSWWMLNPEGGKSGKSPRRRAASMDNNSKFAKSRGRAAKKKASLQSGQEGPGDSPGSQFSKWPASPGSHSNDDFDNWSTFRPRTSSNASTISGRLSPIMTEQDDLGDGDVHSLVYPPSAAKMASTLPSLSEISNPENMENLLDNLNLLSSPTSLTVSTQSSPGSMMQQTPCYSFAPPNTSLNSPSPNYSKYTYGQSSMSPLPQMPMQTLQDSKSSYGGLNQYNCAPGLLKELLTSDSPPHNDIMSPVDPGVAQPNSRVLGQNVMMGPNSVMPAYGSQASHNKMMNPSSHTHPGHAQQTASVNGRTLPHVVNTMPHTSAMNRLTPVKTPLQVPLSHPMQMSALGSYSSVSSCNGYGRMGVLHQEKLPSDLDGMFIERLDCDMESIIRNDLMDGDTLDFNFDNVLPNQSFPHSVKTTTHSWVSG

Turning to `CCn1cc(C(=O)O)c(=O)c2c(N)c(F)c(NC3CCCCC3)cc21` [AS1842856, 5-amino-7-(cyclohexylamino)-1-ethyl-6-fluoro-4-oxo-1,4-dihydroquinoline-3-carboxylic acid], at FoxO1 [1], the “fasting plasma glucose level” value is recorded as “drastic decrease”. Also, at FoxO1 [2] (AS1842856 given for 1 week immediately after DT ablation, analysed 1 month post ablation (1mpa), adult mice, 30 mg/kg i.p. daily), the “insulin+ cells more abundant” value turned out to be 11 fold. Further, on FoxO1 [2] (setting [3]), the “fraction of YFP+ cells that expressed insulin only” value was “one-fourth” and the “insulin+ cells that were YFP+, i.e. dedifferentiated δ-cells” value came out at 93%. The “δ-cell de-differentiation upon transient FoxO1 inhibition” value at FoxO1 [2] (adult mice, AS1842856 for 1 week) is given as “de-differentiate”. In addition, the “effect on insulin expression induction” value on FoxO1 [2] (non-ablated control mice) is listed as “minimal effect”.

Diphtheria toxin [DT] returned a β-cells lost in the assay with β-cells of 99%. Further, the “YFP+/insulin+ (% cells; 1.5 mpa)” value in the assay on α-cells amounted to 0.23%.

The values are drawn from patent publication US20170157110A1, “METHODS FOR INDUCING INSULIN PRODUCTION AND USES THEREOF” (UNIVERSITE DE GENEVE, priority 2014, published 2017).
